Results published in article PMC4534804, “Pharmacokinetics of a multicomponent herbal preparation in healthy Chinese and African volunteers” (Scientific Reports, 2015).

Assays:
[1] = Identification of prototype compounds and metabolites in human plasma after oral K-601 (UPLC-QTOF/MS, EIC peak height); assay type: in vivo
Protocol: (§1) Chromatographic separation was carried out at 25 °C on a Zorbax RRHD Eclipse Plus C18 column (2.1 × 50 mm, 1.8 μm). The mobile phase consisted of 0.1% formic acid solution (A) and ACN (B) using a gradient elution of 0–5% B at 0–6 min, 5–8% B at 6–15 min, 8–15% B at 15–20 min, 15–20% B at 20–30 min, 20–30% at 30–35 min, 30–35% at 35–45 min, 35–40% at 45–60 min. The flow rate was kept at 0.2 mL/min, and the sample volume injected was set at 5 μL. […] The parameters of operation were as follows: drying gas N2 flow rate, 10.0 L/min; temperature, 330 °C; nebulizer, 35 psig; capillary, 3000 V; skimmer, 60 V; OCT RFV, 250 V. Each sample was analyzed in both the positive and negative modes due to the selective sensitivities to different components of the formulation-providing better information for molecular formulae and structural identification. Mass spectra were recorded across the range m/z 100–1000 with accurate mass measurements.
A total of six healthy male volunteers, ages ranging from 22–47 years took part in this study. Three of whom are Africans and three Chinese. […] None was also on any medication.
Blood samples were withdrawn from subjects at the following time intervals, 0 hour (before taking medication and breakfast), 1, 2, 4, and 6 hours after taking the medication. These blood samples were taken by a qualified phlebotomist in the hospital. Each volunteer took 40 mL of same batch of the medication as a single dose. […] Details of subjects in the pharmacokinetic studies are provided (Table 5).
(§2) All blood samples taken at each time were immediately centrifuged at 13000 rpm for 10 min, and the plasma separated and stored at −80 °C until analysis. Plasma samples were thawed at 37 °C before solid-phase extraction (SPE) treatment for UPLC-QTOF/MS analysis. The sample treatment procedure is schematically presented in Supplementary Figure S3.

[2] = Pharmacokinetics of major prototype compounds in healthy Chinese and African volunteers after single oral K-601 (EIC peak area vs time); assay type: in vivo, human; conditions: single oral 40 mL K-601; for Tmax: male, human, plasma, po, 40 mL
Protocol: A total of six healthy male volunteers, ages ranging from 22–47 years took part in this study. Three of whom are Africans and three Chinese. All volunteers avoided the intake of alcohol/alcoholic beverages, coffee/beverages containing coffee for at least 12 hours prior to the study. None was also on any medication. All volunteers also fasted for 12 hours prior to the study and throughout the study period.
Blood samples were withdrawn from subjects at the following time intervals, 0 hour (before taking medication and breakfast), 1, 2, 4, and 6 hours after taking the medication. These blood samples were taken by a qualified phlebotomist in the hospital. Each volunteer took 40 mL of same batch of the medication as a single dose. This study was approved by the Ethics Committee of the First Affiliated Hospital of Nanjing Medical University (2013-SRFA-078) and conducted under the guidelines of the Helsinki Declaration and the International Conference on Harmonization-Good Clinical Practices (ICH-GCP). Details of subjects in the pharmacokinetic studies are provided (Table 5).
as §2
Pharmacokinetic analyses were done using the extracted ion chromatograms (EIC) of the most abundant compounds. The peak areas of derived from the EIC were plotted against time (h).

human intestinal flora = experiment: Biotransformation and metabolism of K-601 by human fecal flora (anaerobic incubation); assay type: in vitro ADME
Protocol: as §1

[3] = human plasma after single oral 40 mL K-601, prototype compounds
[4] = human plasma after administration of K-601, metabolites

For `Cc1cc(O)c2c(c1)C(=O)c1cc(O)cc(O)c1C2=O` [P12, Emodin], the “Abund. (peak height in the EIC) of prototype compound in plasma” value [1, 3] was 0.04 ×10^4.

For `Cc1cc(O)c2c(c1)C(=O)c1cc(C(=O)O)cc(O)c1C2=O` [P15, 6-Methyl-rhein], the “Abund. (peak height in the EIC) of prototype compound in plasma” value ([1]; in vivo, po) was 0.06 ×10^4.

In the case of `COc1ccc2cc3[n+](cc2c1OC)CCc1cc2c(cc1-3)OCO2` [P5, Berberine], the Tmax ([2]; African volunteers) is reported as 4 h, the Tmax ([2]; Chinese volunteers) is reported as 1 h and the “AUC comparison African vs Chinese volunteers (in words)” value [2] is reported as “higher”. The “Abund. (peak height in the EIC) of prototype compound in plasma” value [1, 3] was 50.35 ×10^4 and the “Peak abundance (class) of prototype compound in plasma” value [1, 3] was “High (> 1.00 × 10^4, defined as major constituent, thus high-level)”.

With `O=C(/C=C/c1ccc(O)c(O)c1)O[C@@H]1C[C@](O)(C(=O)O)C[C@@H](O)[C@H]1O` [P7, Chlorogenic acid] the “Abund. (peak height in the EIC) of prototype compound in plasma” value [1, 3] was 0.03 ×10^4.

With `COc1cc2c(cc1OC)[C@@H]1Cc3ccc(OC)c(OC)c3CN1CC2` [P2, Tetrahydropalmatine] the “Abund. (peak height in the EIC) of prototype compound in plasma” value [1, 3] was 0.03 ×10^4.

For `COc1c(O[C@@H]2O[C@H](C(=O)O)[C@@H](O)[C@H](O)[C@H]2O)cc(O)c2c(=O)cc(-c3ccccc3)oc12` [P13, Wogonoside], the “Abund. (peak height in the EIC) of prototype compound in plasma” value [1, 3] was 0.42 ×10^4.

With Caffeoyl-CH2-O-quinic acid [P9] the “Abund. (peak height in the EIC) of prototype compound in plasma” value [1, 3] was 0.03 ×10^4.

With `C=C[C@H]1[C@H](O[C@@H]2O[C@H](CO)[C@@H](O)[C@H](O)[C@H]2O)OC=C(C(=O)O)[C@H]1CC(=O)O` [P6, Secologanoside] the “Abund. (peak height in the EIC) of prototype compound in plasma” value ([1]; in vivo, po) was 0.02 ×10^4.

For `COc1ccc2c(c1O)-c1c(O)c(OC)cc3c1[C@H](C2)[N+](C)(C)CC3` [P1, Magnoflorine], the “AUC comparison African vs Chinese volunteers (in words)” value [2] was “better in the Chinese volunteers” and the “Abund. (peak height in the EIC) of prototype compound in plasma” value ([1]; male, human, in vivo, po) was 6.52 ×10^4.

In the case of `O=c1c(O[C@@H]2O[C@H](CO)[C@H](O)[C@H](O)[C@H]2O)c(-c2ccc(O)c(O)c2)oc2cc(O)cc(O)c12` [P10, Hyperoside], the “Abund. (peak height in the EIC) of prototype compound in plasma” value [1, 3] is reported as 0.05 ×10^4.

With `O=C1c2cccc(O)c2C(=O)c2c(O)cc(O)cc21` [M10] the “Abund. (peak height in the EIC) of metabolite in plasma” value [1, 4] was 0.02 ×10^4 and the “Peak abundance (class) of metabolite in plasma” value [1, 4] was “Low (<0.10 × 10^4 as trace constituent, thus low-level)”.

With `O=C(O)c1cc(O)c2c(c1)C(=O)c1cccc(O)c1C2=O` [P14, Rhein] the “Abund. (peak height in the EIC) of prototype compound in plasma” value [1, 3] was 0.62 ×10^4.

For `COc1cc2c(cc1OC)-c1cc3ccc(OC)c(OC)c3c[n+]1CC2` [P4, Palmatine], the Tmax ([2]; African volunteers) was 4 h, the Tmax ([2]; Chinese volunteers) was 1 h and the “AUC comparison African vs Chinese volunteers (in words)” value [2] was “higher”. For the same molecule, the “Abund. (peak height in the EIC) of prototype compound in plasma” value [1, 3] was 12.63 ×10^4 and the “Peak abundance (class) of prototype compound in plasma” value [1, 3] was “High (> 1.00 × 10^4, defined as major constituent, thus high-level)”.

With `O=C(O)c1cc(O)c(O)c(O)c1O` [T1] the “Abund. (peak height in the EIC) of metabolite from human intestinal transformation” value (human intestinal flora) was 0.05 ×10^4.

With 4-O-caffeoylquinic acid [P8] the “Abund. (peak height in the EIC) of prototype compound in plasma” value ([1]; in vivo, po) was 0.04 ×10^4.

For `COc1cc2c(cc1O)CC[n+]1cc3c(OC)c(OC)ccc3cc1-2` [P3, Jatrorrhizine], the Tmax ([2]; African volunteers) was 4 h, the Tmax ([2]; Chinese volunteers) was 1 h and the “AUC comparison African vs Chinese volunteers (in words)” value [2] was “higher”. For the same molecule, the “Abund. (peak height in the EIC) of prototype compound in plasma” value ([1]; male, human, in vivo, po) was 3.53 ×10^4.
